Data set [1] is described as follows: Cytotoxicity against human L02 cells assessed as inhibition of cell viability incubated for 72 hrs by MTT assay. It counts as toxicity, cell-based. Background: Tetrazolium dyes change colour on reduction, which living cells bring about.
Data set [2] addresses Cyclin-dependent kinase 1 (Homo sapiens, UniProt P06493). The data set can be described thus: Inhibition of CDK1 (unknown origin) assessed as inhibition constant.
Data set [3] relates to MCF7. Briefly: Cytotoxicity against human MCF7 cells assessed as reduction in cell growth incubated for 72 hrs by Calcein AM assay. The following applies: MCF7, 72 h. It counts as functional, cell-based.
A further data set has as its system MDA-MB-468. The data set can be described thus: Cytotoxicity against human MDA-MB-468 cells assessed as reduction in cell growth incubated for 72 hrs by Calcein AM assay. It counts as functional, cell-based. The following applies: MDA-MB-468, 72 h.
Data set [4] concerns HeLa. The data set can be described thus: Cytotoxicity against human HeLa cells assessed as reduction in cell growth incubated for 72 hrs by Calcein AM assay. It counts as functional, cell-based.
Data set [5] deals with HCT-116. Briefly: Cytotoxicity against human HCT-116 cells assessed as reduction in cell growth incubated for 72 hrs by Calcein AM assay. It counts as functional, cell-based. The following applies: HCT-116, 72 h.
Another data set relates to HT-29. Briefly: Cytotoxicity against human HT-29 cells assessed as reduction in cell growth incubated for 72 hrs by Calcein AM assay. The following applies: HT-29, 72 h. It counts as functional, cell-based.
In the next data set the test system is CCRF-CEM. The data set can be described thus: Cytotoxicity against human CEM cells assessed as reduction in cell growth incubated for 72 hrs by Calcein AM assay. It counts as functional, cell-based.
A further data set concerns K562. The data set can be described thus: Cytotoxicity against human K562 cells assessed as reduction in cell growth incubated for 72 hrs by Calcein AM assay. It counts as functional, cell-based. The following applies: K562, 72 h.
The subject of the next data set is G-361. Briefly: Cytotoxicity against human G-361 cells assessed as reduction in cell growth incubated for 72 hrs by Calcein AM assay. To be noted: G-361, 72 h. It counts as functional, cell-based.
Another data set has as its system RPMI-8226. The data set can be described thus: Cytotoxicity against human RPMI-8226 cells assessed as reduction in cell growth incubated for 72 hrs by Calcein AM assay. It counts as functional, cell-based. To be noted: RPMI-8226, 72 h.
The test system of the next data set is U-266. The data set can be described thus: Cytotoxicity against human U-266 cells assessed as reduction in cell growth incubated for 72 hrs by Calcein AM assay. It counts as functional, cell-based. The following applies: U-266, 72 h.
For a further data set, the system named is HOS. The data set can be described thus: Cytotoxicity against human HOS cells assessed as reduction in cell growth incubated for 72 hrs by Calcein AM assay. It counts as functional, cell-based.
In data set [6] the target is Cyclin-dependent kinase 9 (Homo sapiens, UniProt P50750). Briefly: Inhibition of CDK9 (unknown origin) using TMB as substrate by spectrophotometric analysis.
Chain of Cyclin-dependent kinase 9 (P50750 whole entry): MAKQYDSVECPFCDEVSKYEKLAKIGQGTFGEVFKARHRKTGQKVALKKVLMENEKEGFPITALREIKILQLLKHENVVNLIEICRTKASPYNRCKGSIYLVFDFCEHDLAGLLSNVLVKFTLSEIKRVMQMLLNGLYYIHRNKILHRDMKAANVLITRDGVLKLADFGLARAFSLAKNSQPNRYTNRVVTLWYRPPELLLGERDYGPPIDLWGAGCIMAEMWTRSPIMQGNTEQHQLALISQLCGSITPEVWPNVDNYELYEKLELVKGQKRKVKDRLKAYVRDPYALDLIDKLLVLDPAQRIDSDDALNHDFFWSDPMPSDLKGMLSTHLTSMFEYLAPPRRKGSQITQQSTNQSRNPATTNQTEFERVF
Data set [7] concerns the target Cyclin-dependent kinase 2 (Homo sapiens, UniProt P24941). Briefly: Inhibition of CDK2 (unknown origin) incubated for 10 min using histone H1 as substrate in presence of gamma32P-ATP by radioactive assay.
Another data set deals with NCI-H522. The data set can be described thus: Cytotoxicity against human NCI-H522 cells assessed cell growth inhibition incubated for 2 days by MTT assay. It counts as functional, cell-based. To be noted: NCI-H522, 48 h.
Data set [8] can be described thus: Cytotoxicity against human U87 cells assessed cell growth inhibition incubated for 2 days by MTT assay. It counts as functional, cell-based, U-87MG ATCC. The following applies: U-87 MG, 48 h.
Data set [9] can be described thus: Cytotoxicity against human L02 cells assessed cell growth inhibition incubated for 2 days by MTT assay. It counts as toxicity, cell-based.
Data set [10] has as its target T1, Protein cereblon/Cyclin-dependent kinase 9 (Homo sapiens) (UniProt P50750+Q96SW2). The data set can be described thus: Protac activity at CRBN/CDK9 in human HCT-116 cells assessed as induction of CDK9 degradation at 10 uM incubated for 6 hrs by Western blot analysis. It counts as cell-based. On the technique in general: A western blot detects proteins with antibodies after separation by electrophoresis.

Data set [11] concerns the target T1, Protein cereblon/Cyclin-dependent kinase 9 (Homo sapiens). The data set can be described thus: Protac activity at CRBN/CDK9 in human HCT-116 cells assessed as induction of CDK9 degradation at 20 uM incubated for 6 hrs by Western blot analysis. It counts as cell-based.
For a further data set, the target named is CDK2/Cyclin A2 (Homo sapiens, UniProt P24941). Briefly: Inhibition of CDK2/cyclin A2 (unknown origin) expressed in baculovirus expression system incubated for 1 hr using Ser/Thr12 Peptide as substrate in presence of ATP by Z-LYTE kinase assay.
A further data set has as its system HL-60. The data set can be described thus: Antiproliferative activity against human HL-60 cells assessed as reduction in cell viability incubated for 72 hrs by MTT assay. It counts as functional, cell-based. The following applies: HL-60, 72 h.
In data set [12] the test system is A549. Briefly: Antiproliferative activity against human A549 cells assessed as reduction in cell viability incubated for 72 hrs by MTT assay. It counts as functional, cell-based. The following applies: A549, 72 h.
Data set [13] has as its system HCT-116. The data set can be described thus: Antiproliferative activity against human HCT-116 cells assessed as reduction in cell viability incubated for 72 hrs by MTT assay. It counts as functional, cell-based. The following applies: HCT-116, 72 h.
Data set [14] addresses Cyclin-dependent kinase 4 (Homo sapiens, UniProt P11802). The data set can be described thus: Inhibition of CDK4 (unknown origin) by kinase assay.
A further data set has as its system LS174T. The data set can be described thus: Antitumor activity against human LS174T cells assessed as reduction in cell viability by MTT assay. It counts as functional, cell-based.
In data set [15] the test system is A549. The data set can be described thus: Antitumor activity against human A549 cells assessed as reduction in cell viability by MTT assay. It counts as functional, cell-based.
Data set [16] has as its system HeLa. The data set can be described thus: Antitumor activity against human HeLa cells assessed as reduction in cell viability by MTT assay. It counts as functional, cell-based.
A further data set has as its system Bel-7402. The data set can be described thus: Antitumor activity against human Bel-7402 cells assessed as reduction in cell viability by MTT assay. It counts as functional, cell-based.
The next data set concerns the target CDK7/Cyclin H/MNAT1 (Homo sapiens, UniProt P50613). The data set can be described thus: Inhibition of CDK7/Cyclin H/MNAT1 (unknown origin) using 5-FAM-YSPTSPSYSPTSPSYSPTSPSKKK as substrate in presence of ATP by spectroscopic analysis. It counts as protein-complex assay.
For data set [17], the system named is HeLa. Briefly: Antiproliferative activity against human HeLa cells assessed as reduction in cell viability incubated for 3 days by MTT assay. It counts as functional, cell-based. The following applies: 72 h.
Data set [18] addresses Protein cereblon/Cyclin-dependent kinase 4 (Homo sapiens, UniProt P11802+Q96SW2). The data set can be described thus: Protac activity at CRBN/CDK4 in human MDA-MB-231 cells assessed as CDK4 degradation incubated for 18 hrs by Western blot analysis. It counts as cell-based.
The target of data set [19] is Protein cereblon/Cyclin-dependent kinase 6 (Homo sapiens, UniProt Q00534+Q96SW2). Briefly: Protac activity at CRBN/CDK6 in human MDA-MB-231 cells assessed as CDK6 degradation incubated for 18 hrs by Western blot analysis. It counts as cell-based.
Chain of Protein cereblon/Cyclin-dependent kinase 6 (Q00534 whole entry): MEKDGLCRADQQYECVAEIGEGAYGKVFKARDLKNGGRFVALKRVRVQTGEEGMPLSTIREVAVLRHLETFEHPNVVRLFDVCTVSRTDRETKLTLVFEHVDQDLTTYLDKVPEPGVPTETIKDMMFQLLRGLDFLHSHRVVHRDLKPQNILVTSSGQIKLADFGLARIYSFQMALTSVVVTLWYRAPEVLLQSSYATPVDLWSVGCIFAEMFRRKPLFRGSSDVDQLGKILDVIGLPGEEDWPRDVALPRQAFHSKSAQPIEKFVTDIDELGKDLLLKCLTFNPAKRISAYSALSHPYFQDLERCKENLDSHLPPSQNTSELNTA
Chain of Protein cereblon/Cyclin-dependent kinase 6 (Q96SW2 whole entry): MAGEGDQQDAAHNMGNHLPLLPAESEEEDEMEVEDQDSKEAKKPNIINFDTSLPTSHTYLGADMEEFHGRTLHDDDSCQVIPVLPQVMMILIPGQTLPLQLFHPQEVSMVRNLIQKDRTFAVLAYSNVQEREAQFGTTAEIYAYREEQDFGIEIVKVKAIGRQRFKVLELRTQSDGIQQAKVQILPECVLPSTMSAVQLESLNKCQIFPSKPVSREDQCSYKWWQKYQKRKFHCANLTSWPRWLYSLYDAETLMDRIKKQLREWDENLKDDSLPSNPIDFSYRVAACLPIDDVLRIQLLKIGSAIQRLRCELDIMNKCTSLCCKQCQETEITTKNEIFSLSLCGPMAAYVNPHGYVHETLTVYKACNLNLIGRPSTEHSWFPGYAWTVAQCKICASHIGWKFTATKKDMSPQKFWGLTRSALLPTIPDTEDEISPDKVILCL
For a further data set, the system named is MV4-11. The data set can be described thus: Antiproliferative activity against human MV4-11 cells assessed as cell growth inhibition incubated for 72 hrs by resazurin assay. It counts as functional.
A further data set concerns MDA-MB-453. The data set can be described thus: Antiproliferative activity against human MDA-MB-453 cells assessed as cell growth inhibition incubated for 72 hrs by MTT assay. It counts as functional.
Data set [20] is described as follows: AUC in Wistar rat at 20 mg/kg,po and measured upto 24 hrs by LC/MS/MS analysis. It counts as ADME, organism-based. Also on record: time < 24 hrs, dose 20 mg/kg, route po. To be noted: in vivo.
Data set [21] in a line: AUC in Balb/c mouse at 10 mg/kg,po and measured upto 24 hrs by LC/MS/MS analysis. It counts as ADME, organism-based. Also on record: time < 24 hrs, dose 10 mg/kg, route po. To be noted: in vivo.
Data set [22] concerns MCF7. Briefly: Cytotoxicity against human MCF7 cells assessed as reduction in cell viability by MTT assay. It counts as functional, cell-based.

Structures are written as SMILES. A value given as a limit tells only on which side of the number the result lay.

The text below walks through data of ChEMBL document CHEMBL5230096, “A comprehensive insight on the recent development of Cyclic Dependent Kinase inhibitors as anticancer agents” (Eur J Med Chem, 2020).

For orientation: IC50 means the concentration that inhibits the measured activity by half. What is called Ki is a dissociation constant, usually derived from enzyme kinetics or from competition with a known ligand. As a reminder, the DC50 is the concentration at which degradation of the target reaches its halfway point. A word on the GI50: it is the concentration that inhibits growth by half. One may read the AUC as concentration integrated over time. The low end stands for low exposure, the high end for high exposure.

T1 sequence (P50750 whole entry, looked up): as the sequence (P50750 whole entry) above
T1 sequence (Q96SW2 whole entry, looked up): as the sequence (Q96SW2 whole entry) above
Chain of CDK7/Cyclin H/MNAT1 (P51946 whole entry): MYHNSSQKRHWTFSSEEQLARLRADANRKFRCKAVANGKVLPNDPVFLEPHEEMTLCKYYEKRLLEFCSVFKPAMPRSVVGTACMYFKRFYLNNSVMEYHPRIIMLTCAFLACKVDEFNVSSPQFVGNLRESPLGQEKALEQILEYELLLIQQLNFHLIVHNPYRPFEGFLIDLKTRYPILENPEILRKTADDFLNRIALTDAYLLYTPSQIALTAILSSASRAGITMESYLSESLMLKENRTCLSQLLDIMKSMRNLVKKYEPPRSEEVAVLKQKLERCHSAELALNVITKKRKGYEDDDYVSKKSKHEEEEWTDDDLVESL
Chain of CDK7/Cyclin H/MNAT1 (P50613 whole entry): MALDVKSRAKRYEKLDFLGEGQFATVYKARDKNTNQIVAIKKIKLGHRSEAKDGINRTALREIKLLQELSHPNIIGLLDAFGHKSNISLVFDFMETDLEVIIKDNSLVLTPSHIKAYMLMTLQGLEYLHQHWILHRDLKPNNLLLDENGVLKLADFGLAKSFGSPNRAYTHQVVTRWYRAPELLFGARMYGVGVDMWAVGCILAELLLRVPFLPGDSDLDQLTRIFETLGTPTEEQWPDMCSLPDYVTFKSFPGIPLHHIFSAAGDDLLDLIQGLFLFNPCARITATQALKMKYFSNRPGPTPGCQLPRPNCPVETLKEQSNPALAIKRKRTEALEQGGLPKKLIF
Chain of CDK7/Cyclin H/MNAT1 (P51948 whole entry, further chain): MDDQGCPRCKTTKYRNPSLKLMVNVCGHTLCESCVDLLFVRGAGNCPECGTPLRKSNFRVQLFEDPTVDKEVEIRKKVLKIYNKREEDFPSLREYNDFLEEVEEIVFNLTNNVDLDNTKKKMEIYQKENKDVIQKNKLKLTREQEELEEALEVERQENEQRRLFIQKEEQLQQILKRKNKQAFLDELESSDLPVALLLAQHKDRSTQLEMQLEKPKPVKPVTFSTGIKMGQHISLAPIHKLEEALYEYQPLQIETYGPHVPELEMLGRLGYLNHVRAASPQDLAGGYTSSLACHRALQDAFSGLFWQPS
Chain of Protein cereblon/Cyclin-dependent kinase 4 (P11802 whole entry): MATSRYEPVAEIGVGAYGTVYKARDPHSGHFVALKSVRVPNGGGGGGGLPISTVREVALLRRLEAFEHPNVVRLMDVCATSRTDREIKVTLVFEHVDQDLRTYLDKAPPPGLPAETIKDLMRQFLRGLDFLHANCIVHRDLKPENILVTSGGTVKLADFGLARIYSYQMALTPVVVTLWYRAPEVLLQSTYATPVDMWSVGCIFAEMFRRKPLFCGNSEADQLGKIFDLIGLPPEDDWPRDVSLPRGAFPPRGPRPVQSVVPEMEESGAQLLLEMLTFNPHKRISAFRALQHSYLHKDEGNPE
Chain of Protein cereblon/Cyclin-dependent kinase 4 (Q96SW2 whole entry): as the sequence (Q96SW2 whole entry) above
Chain of Cyclin-dependent kinase 4 (P11802 whole entry): as the sequence (P11802 whole entry) above
Chain of Cyclin-dependent kinase 1 (P06493 whole entry): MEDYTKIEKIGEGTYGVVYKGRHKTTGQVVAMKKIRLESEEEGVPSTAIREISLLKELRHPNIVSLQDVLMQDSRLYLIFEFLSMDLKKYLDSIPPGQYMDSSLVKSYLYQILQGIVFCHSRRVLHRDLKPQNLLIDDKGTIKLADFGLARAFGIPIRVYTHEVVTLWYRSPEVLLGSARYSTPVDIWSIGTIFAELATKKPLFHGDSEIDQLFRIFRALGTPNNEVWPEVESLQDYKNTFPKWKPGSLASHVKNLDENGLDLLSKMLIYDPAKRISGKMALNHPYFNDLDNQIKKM

As for `O=C1CCC(N2C(=O)c3cccc(NC(=O)CCCCCCCn4cc(COc5c(O)cc(O)c6c(=O)cc(-c7ccccc7)oc56)nn4)c3C2=O)C(=O)N1` (stereo not drawn), in data set [1], the IC50 at 72 hrs was over 100 µM.

Turning to `CC(=O)N1N=C(c2c(O)c3ccccc3oc2=O)CC1c1ccccc1Cl` (stereo not drawn), the Ki in [2] came out at 0.00035 µM.

As for `CC[C@H](CO)Nc1nc(NCc2ccccc2N)c2[nH]nc(C(C)C)c2n1`, the IC50 in the data set on MCF7 [3], with MDA-MB-468, with HeLa [4], in the data set on HCT-116 [5], with HT-29 and with CCRF-CEM was 5 µM throughout. Moreover, the IC50 with K562, with G-361, in the data set on RPMI-8226, with U-266 and in the data set with HOS was 5 µM throughout.

Take `O=C1N=NC(=O)/C(=C\Nc2ccc(-c3nc4ncccc4[nH]3)cc2)C(=O)N1`: the IC50 in data set [6] is 0.5 µM.

Take `Nc1c([N+](=O)[O-])cnc(NC2CCCCC2)c1[N+](=O)[O-]`: the IC50 in data set [7] was determined as 1.8 µM; in the data set on NCI-H522, 2.89 µM; in data set [8], 3.19 µM. In data set [9], this molecule displayed an IC50 at 2 days of 86.7 µM.

On to `O=C1CCC(N2C(=O)c3cccc(OCCCCCOc4ccc(CC(=O)Nc5cc(C6CCC6)[nH]n5)cc4)c3C2=O)C(=O)N1` (stereo not drawn), for which the Activity worked out at 56% in data set [10] and 65% in data set [11].

Regarding `CCC(CO)Nc1nc(NCc2ccccn2)c2ncn(CC)c2c1[N+](=O)[O-]` (stereo not drawn), the half-inhibitory concentration (IC50) at CDK2/Cyclin A2 is 0.021 µM; in the data set with HL-60, 3.71 µM; in the data set on A549 [12], 3.85 µM; in the data set on HCT-116 [13] it was 1.56 µM.

With `CN(Cc1ccccc1)C(=O)CCc1c[nH]c2ccccc12`, the IC50 in data set [14] is 10 µM; in the data set with LS174T, 11 µM; with A549 [15], 16 µM; with HeLa [16], 25 µM; in the data set on Bel-7402 it was 14 µM.

For the molecule `CN(C)C/C=C/C(=O)Nc1ccc(C(=O)N[C@@]2(C)CCC[C@@H](Nc3ncc(Cl)c(-c4c[nH]c5ccccc45)n3)C2)nc1`, the IC50 on CDK7/Cyclin H/MNAT1 was 0.02 µM.

Regarding `COc1cccc2c1C(=O)c1c(O)c3c(c(O)c1C2=O)C[C@@](O)(C(=O)CO)C[C@@H]3O[C@H]1C[C@H](N)[C@H](O)[C@H](C)O1` [DOXORUBICIN], in the data set on HeLa [17], the IC50 was 1.11 µM.

With `CC(=O)c1c(C)c2cnc(Nc3ccc(N4CCN(Cc5cn(CCCCCC(=O)Nc6cccc7c6C(=O)N(C6CCC(=O)NC6=O)C7=O)nn5)CC4)cn3)nc2n(C2CCCC2)c1=O` (stereo not drawn), the DC50 in data set [18] and in data set [19] was 0.02 µM throughout.

Take `CNc1nc(C)c(-c2nc(Nc3ccc(N4CCC(N(C)C)CC4)cn3)ncc2F)s1`: the GI50 in the data set with MV4-11 came out at 0.107 µM; in the data set with MDA-MB-453, 0.325 µM. Besides, the area under the curve (AUC) at 24 h in data set [20] turned out to be 4.4 µM·h; in data set [21] it was 4.3 µM·h.

In the case of `O=C(CCn1cc(COC(=O)c2c[nH]c3ccccc23)nn1)NC(CC(=O)c1cc2ccccc2oc1=O)c1ccccc1Cl` (stereo not drawn), the IC50 in the data set with MCF7 [22] was 17.5 µM.
